Laboratory results taken from PMC7044277 (Nature Communications, 2020).
Values joined by “and” are separate entries in the source; they are usually repeats but may differ in a detail not shown here. Equal entries are not always repeated.

What was measured:
Assay type in all cases: cell-based
[1] = target: T1, 320 non-olfactory GPCRs (Homo sapiens, UniProt O95838)
T1 construct: expressed in transfected cells; host or cells: HTLA cells

[2] = target: T2, 320 non-olfactory GPCRs (Homo sapiens, UniProt P30559); details: receptor OXTR; replicate values, Fig_4g
T2 construct: expressed in transfected cells; host or cells: HTLA cells
T2 sequence (P30559 whole entry): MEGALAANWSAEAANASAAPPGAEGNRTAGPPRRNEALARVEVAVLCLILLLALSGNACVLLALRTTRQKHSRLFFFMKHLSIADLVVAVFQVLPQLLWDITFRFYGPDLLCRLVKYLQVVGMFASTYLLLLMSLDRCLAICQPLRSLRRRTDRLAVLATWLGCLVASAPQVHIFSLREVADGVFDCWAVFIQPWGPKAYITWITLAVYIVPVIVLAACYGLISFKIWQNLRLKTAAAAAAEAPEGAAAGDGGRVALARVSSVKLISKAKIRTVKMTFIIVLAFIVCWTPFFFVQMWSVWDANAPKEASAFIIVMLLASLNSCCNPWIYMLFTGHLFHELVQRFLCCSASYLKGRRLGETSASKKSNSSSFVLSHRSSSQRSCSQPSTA

[3] = target: 320 non-olfactory GPCRs (Homo sapiens, UniProt P35462)
Chain of 320 non-olfactory GPCRs (Homo sapiens, UniProt P35462) (P35462 whole entry): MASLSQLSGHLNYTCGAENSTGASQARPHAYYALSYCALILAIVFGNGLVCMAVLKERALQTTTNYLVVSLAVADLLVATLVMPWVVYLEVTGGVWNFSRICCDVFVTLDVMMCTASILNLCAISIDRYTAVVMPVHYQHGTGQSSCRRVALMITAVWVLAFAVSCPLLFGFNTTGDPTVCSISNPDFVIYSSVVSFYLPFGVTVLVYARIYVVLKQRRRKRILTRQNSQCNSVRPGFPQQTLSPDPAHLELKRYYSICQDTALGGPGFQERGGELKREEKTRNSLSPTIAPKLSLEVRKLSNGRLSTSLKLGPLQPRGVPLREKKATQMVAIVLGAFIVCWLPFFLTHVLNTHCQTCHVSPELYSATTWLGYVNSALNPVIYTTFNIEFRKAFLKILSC

[4] = target: T3, 320 non-olfactory GPCRs (Homo sapiens, UniProt P48960)
T3 construct: expressed in transfected cells; host or cells: HTLA cells
T3 sequence (P48960 21-835): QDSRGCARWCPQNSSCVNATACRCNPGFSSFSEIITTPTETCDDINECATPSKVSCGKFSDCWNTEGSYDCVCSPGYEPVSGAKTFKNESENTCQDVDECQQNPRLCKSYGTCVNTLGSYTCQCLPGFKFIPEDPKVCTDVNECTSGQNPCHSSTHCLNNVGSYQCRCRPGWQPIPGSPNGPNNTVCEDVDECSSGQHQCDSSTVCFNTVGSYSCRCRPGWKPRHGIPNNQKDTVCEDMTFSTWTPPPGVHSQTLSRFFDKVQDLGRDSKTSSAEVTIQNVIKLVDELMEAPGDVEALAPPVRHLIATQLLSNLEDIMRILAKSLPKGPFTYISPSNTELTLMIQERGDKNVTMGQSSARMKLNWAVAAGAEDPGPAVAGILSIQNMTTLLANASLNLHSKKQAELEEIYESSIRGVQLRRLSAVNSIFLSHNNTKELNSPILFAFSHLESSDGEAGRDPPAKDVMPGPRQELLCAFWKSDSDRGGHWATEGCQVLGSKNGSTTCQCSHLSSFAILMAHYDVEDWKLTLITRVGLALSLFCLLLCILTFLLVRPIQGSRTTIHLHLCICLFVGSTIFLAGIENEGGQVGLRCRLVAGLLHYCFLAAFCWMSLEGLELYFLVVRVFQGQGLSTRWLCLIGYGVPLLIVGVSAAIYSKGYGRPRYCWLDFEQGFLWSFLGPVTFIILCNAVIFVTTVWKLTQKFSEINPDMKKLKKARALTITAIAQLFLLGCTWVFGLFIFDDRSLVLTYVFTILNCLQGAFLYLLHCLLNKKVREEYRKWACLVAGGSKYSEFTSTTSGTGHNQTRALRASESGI
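For Fold of Basal in this document: compound tested at 1 µM final concentration.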
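For GPCRome agonism screen response in this document: fold over basal response of each receptor without drug.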

T1 sequence (O95838 whole entry): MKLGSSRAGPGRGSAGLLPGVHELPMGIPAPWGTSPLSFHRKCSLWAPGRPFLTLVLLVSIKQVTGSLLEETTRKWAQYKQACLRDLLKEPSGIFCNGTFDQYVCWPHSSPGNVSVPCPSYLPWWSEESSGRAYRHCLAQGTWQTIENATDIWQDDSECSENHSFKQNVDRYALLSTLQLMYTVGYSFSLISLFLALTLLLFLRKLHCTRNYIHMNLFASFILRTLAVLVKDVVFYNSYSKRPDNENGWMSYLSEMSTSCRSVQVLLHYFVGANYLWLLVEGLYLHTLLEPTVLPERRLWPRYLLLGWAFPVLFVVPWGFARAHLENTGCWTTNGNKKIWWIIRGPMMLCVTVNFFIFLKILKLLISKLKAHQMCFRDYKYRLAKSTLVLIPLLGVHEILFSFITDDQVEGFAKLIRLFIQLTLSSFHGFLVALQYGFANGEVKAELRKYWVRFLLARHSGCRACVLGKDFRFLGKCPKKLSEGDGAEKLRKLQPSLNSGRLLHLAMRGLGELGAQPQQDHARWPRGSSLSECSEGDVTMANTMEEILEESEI

In the case of `CCOc1cccc2cc(C(C)NCC3(O)CCCCC3)oc12` (stereo not shown) [O4LE6], the “Fold of Basal” value [1] is reported as 0.5783 and 0.9087 and 0.8921 and 0.8331, the “GPCRome agonism screen response” value [2] is reported as 1.578 and 1.894 and 1.457 and 1.467 and the “Fold of Basal” value [3] is reported as 9.324 and 11.1304 and 9.776 and 11.3977. For the same molecule, the “Fold of Basal” value [4] was 0.9696 and 0.6986 and 0.95 and 0.7013.
